In publication PMC9951879, “Synthesis of New Shogaol Analogues as NRF2 Activators and Evaluation of Their Anti-Inflammatory Activity, Modes of Action and Metabolic Stability” (Antioxidants, 2023):
Like-named read-outs stand apart in the source and are kept apart here.

Key:
GPX2 = assay: qPCR gene expression in Hepa1c1c-7 cells: GPX2; type: cell-based, mouse; conditions: 1 μM, 48 h, Hepa-1c1c7 cells
Protocol: (§1) Hepa1c1c-7 cells were treated with STCs (1 μM) for 48 h, and the total RNA was isolated using QIAzol®lysis reagent (Qiagen, Germany). Next, cDNA was synthesised using the ReverTra Ace® qPCR RT Master Mix Kit (Toyobo Research Reagents, Osaka, Japan). Quantitative PCR was performed using THUNDERBIRD^TM Next SYBR® qPCR Mix (Toyobo Research Reagents, Osaka, Japan) in CFX96 Touch Real-Time PCR Detection System (Bio-Rad Laboratories, San Jose, CA, USA). The genes tested and the respective primers (purchased from Integrated DNA Technologies, Coralville, IA, USA) used in the study are shown in Table 1. β-actin was used as a reference gene for the normalisation of target gene expression. The 2^−ΔΔCt method was used to measure the relative expression of target genes.

GSTA4 = assay: qPCR gene expression in Hepa1c1c-7 cells: GSTA4; type: cell-based, mouse; conditions: 1 μM, 48 h, Hepa-1c1c7 cells
Protocol: as §1

GSTP1 = assay: qPCR gene expression in Hepa1c1c-7 cells: GSTP1; type: cell-based, mouse; conditions: 1 μM, 48 h, Hepa-1c1c7 cells
Protocol: as §1

GSTM2 = assay: qPCR gene expression in Hepa1c1c-7 cells: GSTM2; type: cell-based, mouse; conditions: 1 μM, 48 h, Hepa-1c1c7 cells
Protocol: as §1

GCLC = assay: qPCR gene expression in Hepa1c1c-7 cells: GCLC; type: cell-based, mouse; conditions: 1 μM, 48 h, Hepa-1c1c7 cells
Protocol: as §1

[1] = tested on: free thiol content in NRF2-proficient BV-2 cells; assay: Thiol quantification assay in BV-2 cells; type: cell-based, mouse
Protocol: The anti-inflammatory activity of the STCs was determined in E. coli lipopolysaccharide (LPSEc; Sigma Aldrich, USA)-induced inflammation in NRF2-proficient and NRF2 siRNA-transfected mouse microglial (BV-2) cells. The NRF2 was silenced in BV-2 cells using NRF2 siRNA (Santa Cruz Biotechnology, Dallas, TX, USA) in Opti-MEM transfection medium (Thermo Fisher Scientific, USA) using Lipofectamine^TM LTX reagent with PLUS^TM reagent (Thermo Fisher Scientific, USA) following the manufacturer’s protocol and reported method. The cells (5 × 10^5 cells/well) were allowed to form a monolayer by incubating them for 24 h and then adding LPSEc (200 ng/mL) for 4 h. […] The nitric oxide (NO) level in cell supernatant was determined using the Griess reagent kit (Thermo Fisher Scientific, USA). The levels of proinflammatory cytokines (IL-1β, IL-6, IFN-γ, and TNF-α) in cell supernatant solutions were determined using commercially available ELISA kits (Abcam, Cambridge, UK). […] The protein concentration was determined using Bradford’s assay kit (Thermo Fisher Scientific, USA) following the manufacturer’s instructions. The expression of COX-2, NF-κB p65, NRF2, and HO-1 in cell lysates was determined using commercially available ELISA kits (Abcam, St, Louis, Missouri, USA) following the manufacturer’s protocol. In addition, the thiol content was determined using a thiol quantification assay kit (Abcam, USA).

GCLM = assay: qPCR gene expression in Hepa1c1c-7 cells: GCLM; type: cell-based, mouse; conditions: 1 μM, 48 h, Hepa-1c1c7 cells
Protocol: as §1

[2] = Vybrant MTT cytotoxicity assay in BV-2 cells together with LPSEc; type: cell-based; conditions: mouse, BV-2 microglial cells, BV-2 cells plus LPSEc 200 ng/mL, read-out: cell viability
Protocol: (§2) The safe dose of the test compounds on murine hepatoma (Hepa1c1c-7) and mouse microglial cells (BV-2) was assessed by determining their cytotoxicity using Vybrant® MTT Cell Proliferation Assay Kit (Thermo Fisher Scientific, USA) following the manufacturer’s protocol. In the case of BV-2 cells, the cytotoxicity of the test compounds was assessed together with E. coli lipopolysaccharide (LPSEc), 200 ng/mL. The cell density was 5 × 10^5 cells/well (in a 96-well plate), and they were preincubated for 24 h. The test compounds (10, 5, 2.5, 1.25, and 0.625 μM) were then added to each well (in triplicate) and incubated for another 24 h. The solution’s absorbance was measured using Spectramax (Molecular Devices, San Jose, California, USA) M3 microplate reader. The cell viability was calculated using the following formula, and the results are presented as mean ± SD. Percent cell viability %=Atreated cells−Ablank /Auntreated cells−Ablank×100%

[3] = Vybrant MTT cytotoxicity assay in Hepa-1c1c7 cells; type: cell-based; conditions: mouse, read-out: cell viability
Protocol: as §2

Row | SMILES | GPX2 gene expression foldchange (compared to control) (GPX2) | GSTA4 gene expression foldchange (compared to control) (GSTA4) | GSTP1 gene expression foldchange (compared to control) (GSTP1) | GSTM2 gene expression foldchange (compared to control) (GSTM2) | GCLC gene expression foldchange (compared to control) (GCLC) | reactivity with thiols lower than that of 6-shogaol ([1]; versus 6-shogaol) | GCLM gene expression foldchange (compared to control) (GCLM) | viability at 24 h, 5 µM ([2]; concentrations ≥ 5 μM) [%] | viability at 24 h ([3]; Hepa-1c1c7 cells, 5 and 10 μM) [%] | free thiol content ([1]; NRF2-proficient BV-2 cells, untreated cells = 100%) [%] | viability at 24 h, 2.5 µM ([2]; concentrations ≥ 2.5 μM) [%] | viability at 24 h ([3]; Hepa-1c1c7 cells, 2.5, 5 and 10 μM) [%]
1 | COc1cc(CCC(=O)/C=C/c2cc(-c3ccccc3)cs2)ccc1O [STC5, (E)-5-(4-Hydroxy-3-methoxyphenyl)-1-(4-phenylthiophen-2-yl)pent-1-en-3-one] | 3.25 ± 0.11 | 2.52 ± 0.03 | 3.71 ± 0.09 | 3.19 ± 0.05 | 2.31 ± 0.05 | about 70% | 3.91 ± 0.09 |  |  |  |  | 
2 | CCCCC/C=C/C(=O)CCc1ccc(O)c(OC)c1 [6-shogaol, reference compound] | 1.63 ± 0.06 | 1.53 ± 0.02 | 2.12 ± 0.09 | 1.19 ± 0.05 | 1.20 ± 0.05 |  | 2.28 ± 0.10 | < 90 | < 90 | 35.03 ± 3.70 |  | 
3 | COc1cc(CCC(=O)/C=C/c2ccc([N+](=O)[O-])s2)ccc1O [STC8, (E)-5-(4-Hydroxy-3-methoxyphenyl)-1-(5-nitrothiophen-2-yl)pent-1-en-3-one] |  |  |  |  |  |  |  |  |  |  | < 90 | < 90
